Patent US4687780A, “Anti-tumor compounds of platinum” (Johnson Matthey PLC, priority 1985, dated 1987)

Tests used:
ADJ/PC6A plasmacytoma = experiment: activity against ADJ/PC6A plasmacytoma grown subcutaneously in mice, oral administration; assay type: in vivo, female Balb C^- mice; conditions: for ED90 (dose level causing a 90% reduction in tumor size): suspension in arachis oil
Description: (§1) Additionally, the same compounds were tested for activity against ADJ/PC6A plasmacytoma grown subcutaneously in female Balb C^- mice following oral administration as a suspension in arachis oil. Dosage levels were at 100μ mole/kg of body weight for pharmacokinetic tests to establish the extent of absorption into the systemic circulation.
(§2) Results are presented in terms of concentration (μg/ml) of Pt in the blood and cumulative percentage dose in urine, cage wash and faeces, all after specified time intervals. Results for anti-tumor effect are expressed as LD50 (mg/kg), ED90 (mg/kg), and TI (LD50 /ED90). The figures for LD50 (the dose level causing 50% deaths) and ED90 (the dose level causing a 90% reduction in tumor size) are determined by administering dosage levels ranging from lethal to non-tumor inhibitory. The therapeutic index (TI) is an indication of the selectivity of the compound as an anti-tumor agent.

B16 melanoma = experiment: anti-tumor activity against B16 melanoma in BDF1 female mice, i.p. 9 daily doses; assay type: in vivo; design: median survival time (MST): unit not given here; conditions: for % T/C (MST/MST control×100) / median survival time (MST): 9 daily doses from Day 1; for average weight change (AWC): by Day 6
Description: (§3) Compounds according to the invention were screened for anti-tumor activity against L1210 leukaemia and B16 melanoma in mice. The compounds were administered intraperitoneally as solutions or suspensions in water and "Tween" 80 as carrier to CDF1 male mice (L1210) and BDF1 female mice (B16). […] For each dose level, results are quoted in terms of median survival time (MST); the comparative effect (i.e. MST/MST control×100); average weight change (AWC) by Day 5 (L1210) or Day 6 (B16); and the number of mice alive (MA) at Day 5 (L1210) or Day 10 (B16).
(§4) Results were as follows for the compounds as prepared in Examples 3 and 4.
2. B16 (0.5 ml 10% BREI): treatment consisted of 9 daily doses beginning at Day 1.

[1] = LD50 (dose level causing 50% deaths), oral administration; assay type: in vivo, female Balb C^- mice; conditions: suspension in arachis oil
Description: as §1, §2

[2] = pharmacokinetic tests: Pt in blood and cumulative percentage dose in urine, cage wash and faeces after oral administration; assay type: in vivo, female Balb C^- mice
Description: as §1, §2

L1210 leukaemia = experiment: anti-tumor activity against L1210 leukaemia in CDF1 male mice, i.p. single dose Day 1; assay type: in vivo; design: median survival time (MST): unit not given here; conditions: for % T/C (MST/MST control×100) / median survival time (MST): single dose Day 1; for average weight change (AWC): by Day 5
Description: as §3, §4
1. L1210 (1×10^6 cells): treatment consisted of single dose on Day 1.

Structure (SMILES): [NH2][Pt]1([NH]C2CCCC2)[O]C(=O)C2(CCC2)C(=O)[O]1 [Ex. 4, ammine(cyclobutane-1,1-dicarboxylato)cyclopentylamine platinum(II)]
- therapeutic index TI (LD50/ED90) (ADJ/PC6A plasmacytoma): 32
- ED90 (dose level causing a 90% reduction in tumor size) (ADJ/PC6A plasmacytoma): 50 mg/kg
- % T/C (MST/MST control×100) (B16 melanoma; 8 mg/kg): 115%
- median survival time (MST) (B16 melanoma; 8 mg/kg): 22.5
- % T/C (MST/MST control×100) (B16 melanoma; 13 mg/kg i.p.): 133%
- median survival time (MST) (B16 melanoma; 13 mg/kg i.p.): 26.0
- % T/C (MST/MST control×100) (B16 melanoma; 20 mg/kg i.p.): 149%
- median survival time (MST) (B16 melanoma; 20 mg/kg i.p.): 29.0
- % T/C (MST/MST control×100) (B16 melanoma; 30 mg/kg i.p.): 164%
- median survival time (MST) (B16 melanoma; 30 mg/kg i.p.): 32.0
- number of mice alive (MA) (B16 melanoma; mouse, in vivo): 10/10
- LD50 (dose level causing 50% deaths) [1]: 1600 mg/kg
- Blood conc. of Pt ([2]; mouse, in vivo, po, 1 h): 0.88 ± 0.05 μg/ml of whole blood
- Blood conc. of Pt ([2]; mouse, in vivo, po, 2 h): 1.21 ± 0.16 μg/ml of whole blood
- Blood conc. of Pt ([2]; mouse, in vivo, po, 4 h): 0.82 ± 0.12 μg/ml of whole blood
- Blood conc. of Pt ([2]; mouse, in vivo, po, 7 h): 0.32 ± 0.05 μg/ml of whole blood
- Blood conc. of Pt ([2]; mouse, in vivo, po, 24 h): 0.20 ± 0.03 μg/ml of whole blood
- Cage wash (cumulative %) ([2]; mouse, in vivo, po, 24 h): 7.1 ± 0.7%
- Faeces dose (cumulative %) ([2]; mouse, in vivo, po, 24 h): 57.6 ± 3.5%
- Urine dose (cumulative %) ([2]; mouse, in vivo, po, 24 h): 16.8 ± 2.4%
- Blood conc. of Pt ([2]; mouse, in vivo, po, 48 h): 0.20 ± 0.03 μg/ml of whole blood
- Cage wash (cumulative %) ([2]; mouse, in vivo, po, 48 h): 8.0 ± 0.9%
- Faeces dose (cumulative %) ([2]; mouse, in vivo, po, 48 h): 59.8 ± 3.6%
- Urine dose (cumulative %) ([2]; mouse, in vivo, po, 48 h): 18.2 ± 2.4%
- % T/C (MST/MST control×100) (L1210 leukaemia; 40 mg/kg i.p.): 154%
- median survival time (MST) (L1210 leukaemia; 40 mg/kg i.p.): 10.0
- % T/C (MST/MST control×100) (L1210 leukaemia; 80 mg/kg i.p.): 177%
- median survival time (MST) (L1210 leukaemia; 80 mg/kg i.p.): 11.5
- % T/C (MST/MST control×100) (L1210 leukaemia; 120 mg/kg i.p.): 177%
- median survival time (MST) (L1210 leukaemia; 120 mg/kg i.p.): 11.5
- % T/C (MST/MST control×100) (L1210 leukaemia; 160 mg/kg i.p.): 192%
- median survival time (MST) (L1210 leukaemia; 160 mg/kg i.p.): 12.5
- number of mice alive (MA) (L1210 leukaemia; mouse, in vivo): 6/6

Structure (SMILES): N.NC1CCCCC1.O=C([O-])C1(C(=O)[O-])CCC1.[Pt+2] [Ex. 3, ammine(cyclobutane-1,1-dicarboxylato)cyclohexylamine platinum(II)]
- therapeutic index TI (LD50/ED90) (ADJ/PC6A plasmacytoma): 22
- ED90 (dose level causing a 90% reduction in tumor size) (ADJ/PC6A plasmacytoma): 73 mg/kg
- % T/C (MST/MST control×100) (B16 melanoma; 6 mg/kg i.p.): 136%
- median survival time (MST) (B16 melanoma; 6 mg/kg i.p.): 26.5
- number of mice alive (MA) (B16 melanoma; 6 mg/kg i.p., 9 daily doses, at Day 10): 10/10
- average weight change (AWC) (B16 melanoma; 6 mg/kg i.p., 9 daily doses): -0.3 g
- % T/C (MST/MST control×100) (B16 melanoma; 12 mg/kg i.p.): 149%
- median survival time (MST) (B16 melanoma; 12 mg/kg i.p.): 29.0
- number of mice alive (MA) (B16 melanoma; 12 mg/kg i.p., 9 daily doses, at Day 10): 10/10
- average weight change (AWC) (B16 melanoma; 12 mg/kg i.p., 9 daily doses): -1.0 g
- % T/C (MST/MST control×100) (B16 melanoma; 18 mg/kg i.p.): 174%
- median survival time (MST) (B16 melanoma; 18 mg/kg i.p.): 34.0
- number of mice alive (MA) (B16 melanoma; 18 mg/kg i.p., 9 daily doses, at Day 10): 10/10
- average weight change (AWC) (B16 melanoma; 18 mg/kg i.p., 9 daily doses): -1.6 g
- % T/C (MST/MST control×100) (B16 melanoma; 24 mg/kg i.p.): 177%
- median survival time (MST) (B16 melanoma; 24 mg/kg i.p.): 34.5
- number of mice alive (MA) (B16 melanoma; 24 mg/kg i.p., 9 daily doses, at Day 10): 10/10
- average weight change (AWC) (B16 melanoma; 24 mg/kg i.p., 9 daily doses): -1.4 g
- LD50 (dose level causing 50% deaths) [1]: 1600 mg/kg
- Blood conc. of Pt ([2]; 1 hr, oral, 100μ mole/kg, suspension in arachis oil): 0.62 ± 0.11 μg/ml of whole blood
- Blood conc. of Pt ([2]; 2 hrs, oral, 100μ mole/kg, suspension in arachis oil): 0.80 ± 0.08 μg/ml of whole blood
- Blood conc. of Pt ([2]; 4 hrs, oral, 100μ mole/kg, suspension in arachis oil): 0.64 ± 0.03 μg/ml of whole blood
- Blood conc. of Pt ([2]; 7 hrs, oral, 100μ mole/kg, suspension in arachis oil): 0.51 ± 0.09 μg/ml of whole blood
- Cage wash (cumulative %) ([2]; 24 hrs, oral, 100μ mole/kg): 5.1 ± 1.2%
- Faeces dose (cumulative %) ([2]; 24 hrs, oral, 100μ mole/kg): 57.0 ± 14.1%
- Urine dose (cumulative %) ([2]; 24 hrs, oral, 100μ mole/kg): 11.4 ± 2.1%
- Blood conc. of Pt ([2]; 24 hrs, oral, 100μ mole/kg, suspension in arachis oil): 0.16 ± 0.05 μg/ml of whole blood
- Cage wash (cumulative %) ([2]; 48 hrs, oral, 100μ mole/kg): 6.4 ± 1.8%
- Faeces dose (cumulative %) ([2]; 48 hrs, oral, 100μ mole/kg): 62.1 ± 13.7%
- Urine dose (cumulative %) ([2]; 48 hrs, oral, 100μ mole/kg): 12.8 ± 1.8%
- Blood conc. of Pt ([2]; 48 hrs, oral, 100μ mole/kg, suspension in arachis oil): 0.16 ± 0.03 μg/ml of whole blood
- % T/C (MST/MST control×100) (L1210 leukaemia; 40 mg/kg i.p.): 154%
- median survival time (MST) (L1210 leukaemia; 40 mg/kg i.p.): 10.0
- number of mice alive (MA) (L1210 leukaemia; 40 mg/kg i.p., single dose, at Day 5): 5/5
- average weight change (AWC) (L1210 leukaemia; 40 mg/kg i.p., single dose): -0.1 g
- % T/C (MST/MST control×100) (L1210 leukaemia; 80 mg/kg i.p.): 185%
- median survival time (MST) (L1210 leukaemia; 80 mg/kg i.p.): 12.0
- number of mice alive (MA) (L1210 leukaemia; 80 mg/kg i.p., single dose, at Day 5): 6/6
- average weight change (AWC) (L1210 leukaemia; 80 mg/kg i.p., single dose): -2.4 g
- % T/C (MST/MST control×100) (L1210 leukaemia; 120 mg/kg i.p.): 185%
- median survival time (MST) (L1210 leukaemia; 120 mg/kg i.p.): 12.0
- number of mice alive (MA) (L1210 leukaemia; 120 mg/kg i.p., single dose, at Day 5): 6/6
- average weight change (AWC) (L1210 leukaemia; 120 mg/kg i.p., single dose): -0.6 g
- % T/C (MST/MST control×100) (L1210 leukaemia; 160 mg/kg i.p.): 231%
- median survival time (MST) (L1210 leukaemia; 160 mg/kg i.p.): 15.0
- number of mice alive (MA) (L1210 leukaemia; 160 mg/kg i.p., single dose, at Day 5): 5/6
- average weight change (AWC) (L1210 leukaemia; 160 mg/kg i.p., single dose): -4.5 g
